T1: Saci-PP2A (Sulfolobus acidocaldarius, UniProt Q4JAD1)
T1 sequence (Q4JAD1 1-293): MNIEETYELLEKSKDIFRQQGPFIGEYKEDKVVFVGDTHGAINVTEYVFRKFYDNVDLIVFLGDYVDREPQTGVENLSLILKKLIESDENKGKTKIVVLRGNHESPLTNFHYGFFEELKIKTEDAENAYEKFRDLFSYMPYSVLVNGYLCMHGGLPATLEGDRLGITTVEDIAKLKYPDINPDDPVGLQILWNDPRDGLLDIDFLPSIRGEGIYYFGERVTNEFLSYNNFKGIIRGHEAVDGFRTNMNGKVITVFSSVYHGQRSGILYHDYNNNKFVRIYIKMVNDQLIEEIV


Columns and labels:
Saci-PP2A = molecular target: T1, Saci-PP2A; experiment: malachite green phosphate release assay, inhibition; format: biochemical; conditions: read-out: % activity at 10 nM
purified protein = substrate: O=[N+]([O-])c1ccc(OP(=O)(O)O)cc1; experiment: purified protein; format: biochemical, Sulfolobus acidocaldarius; conditions: 0.1 M HEPES/KOH pH 6.5, 70 °C, substrate inhibition above 2 mM

Row | Molecule | activity at 0.01 µM (Saci-PP2A) [%] | Vmax (purified protein) [µmol/min/mg]
1 | C=C1[C@@H](O)[C@@H]2O[C@]3(CC[C@H](/C=C/[C@@H](C)[C@@H]4CC(C)=C[C@@]5(O[C@H](C[C@@](C)(O)C(=O)O)CC[C@H]5O)O4)O3)CC[C@H]2O[C@@H]1[C@@H](O)C[C@H](C)[C@H]1O[C@@]2(CCCCO2)CC[C@H]1C [okadaic acid] | 56 | –
2 | Saci-PTP (Sulfolobus acidocaldarius DSM 639) (protein) MYWVKKHVIGGSAIPYTQDEIIGWINEGVKRVLVLPEEFEIDEAWGSLEYYISVLKSFNIEYLYSPIPDGRAPSENQFLEIYKWLRKDKGNLVHCVGGIGRTGTILASYLVLEENMSAEEAIEEVRRVRPGAVQTYEQELFVFKVEKMKDKWKIL | – | 3.7
